Common to all, as to format: functional, cell-based
One assay has as its system PC-3. The assay can be described thus: Antiproliferative activity against human PC-3 cells measured after 48 hrs by MTT assay. The conditions noted are these: PC-3, 48 h.
The next assay concerns MGC-803. The assay can be described thus: Antiproliferative activity against human MGC-803 cells measured after 48 hrs by MTT assay. The conditions noted are these: MGC-803, 48 h. (In general: Tetrazolium dyes change colour on reduction, which living cells bring about.)
The next assay deals with MCF7. The assay can be described thus: Antiproliferative activity against human MCF7 cells measured after 48 hrs by MTT assay. The conditions noted are these: MCF7, 48 h.

Our source for the IC50 values is ChEMBL document CHEMBL4765275, “Discovery of novel tertiary amide derivatives as NEDDylation pathway activators to inhibit the tumor progression in vitro and in vivo” (Eur J Med Chem, 2020).

SMILES strings stand for the structures.

The term IC50 denotes the concentration at which inhibition is half-maximal. The low end stands for greater potency in that assay, the high end for weaker potency in that assay.

As to `COc1ccc(CN(C(=O)Cc2cccs2)c2ccc(OC)c(OC)c2)cc1`, the IC50 with PC-3, in the assay on MGC-803 and in the assay on MCF7 was greater than 80 µM throughout.

On to `COc1ccc(CN(C(=O)Cc2cccs2)c2cc(Cl)c(Cl)cc2Cl)cc1`, for which the IC50 in the assay on PC-3, in the assay on MGC-803 and in the assay with MCF7 was greater than 80 µM in each case.

`COc1ccc(CN(C(=O)CSc2nc3ccccc3o2)c2cc(OC)c(OC)c(OC)c2)cc1` displayed a half-maximal inhibitory concentration (IC50) with MCF7 of 6.68 µM.

Turning to `COc1cc(N(Cc2ccc(F)cc2)C(=O)Cc2cccs2)cc(OC)c1OC`, the figures for the IC50 in the assay on PC-3, in the assay on MGC-803 and with MCF7 were 23.1 µM, 32.6 µM and 50.9 µM, respectively.

Take `COc1ccc(CN(C(=O)Cc2cccs2)c2ccccc2)cc1`: the IC50 with PC-3, in the assay on MGC-803 and in the assay on MCF7 was greater than 80 µM each time.

Regarding `COc1ccc(CN(C(=O)Cc2ccc(F)cc2)c2cc(OC)c(OC)c(OC)c2)cc1`, the figures for the half-inhibitory concentration (IC50) with PC-3, in the assay on MGC-803 and in the assay on MCF7 were 2.38 µM, 1.81 µM and 2.52 µM, respectively.

For the compound `COc1cc(N(Cc2ccc(C(C)(C)C)cc2)C(=O)Cc2cccs2)cc(OC)c1OC`, the half-inhibitory concentration (IC50) in the assay on PC-3 is 13.8 µM; in the assay with MGC-803, 22.8 µM; with MCF7, 19.4 µM.

Turning to `COc1ccc(CN(C(=O)CSc2ccccn2)c2cc(OC)c(OC)c(OC)c2)cc1`, in the assay with MCF7, the concentration for half-maximal inhibition (IC50) came out at 16.1 µM.

As to `COc1ccc(CN(C(=O)COc2cc(OC)c(OC)c(OC)c2)c2cc(OC)c(OC)c(OC)c2)cc1`, the IC50 in the assay on PC-3 is greater than 80 µM; in the assay with MGC-803, 31.2 µM; with MCF7, 40.7 µM.

`COc1ccc(CN(C(=O)CSc2nnnn2C)c2cc(OC)c(OC)c(OC)c2)cc1`: the midpoint of inhibition with MCF7, the IC50, lay at 14.4 µM.

Turning to `COc1cc(N(Cc2cccc(Cl)c2)C(=O)Cc2cccs2)cc(OC)c1OC`, the figures for the half-maximal inhibitory concentration (IC50) in the assay on PC-3, with MGC-803 and with MCF7 were 77.9 µM, 37 µM and 42.4 µM, respectively.

With `COc1cc(N(Cc2ccc(Cl)cc2)C(=O)Cc2cccs2)cc(OC)c1OC`, the values for the half-inhibitory concentration (IC50) in the assay on PC-3, in the assay with MGC-803 and in the assay with MCF7 were 19.3 µM, 14.3 µM and 8.78 µM, respectively.

Turning to `COc1ccc(CN(C(=O)COc2cccc(Cl)c2)c2cc(OC)c(OC)c(OC)c2)cc1`, the IC50 with PC-3 came out at 30.5 µM; in the assay on MGC-803, 68.7 µM; in the assay with MCF7 it was 55.2 µM.

Consider `COc1ccc(CN(C(=O)COc2ccccc2)c2cc(OC)c(OC)c(OC)c2)cc1`, for which the IC50 with PC-3 turned out to be 19.7 µM; in the assay with MGC-803, 22.7 µM; in the assay on MCF7 it was 64.1 µM.

Turning to `COc1ccc(CN(C(=O)Cc2ccccc2)c2cc(OC)c(OC)c(OC)c2)cc1`, the values for the 50% inhibitory concentration (IC50) in the assay with PC-3, in the assay with MGC-803 and in the assay on MCF7 were 0.85 µM, 6.82 µM and 2.68 µM, respectively.

Consider `COc1ccc(CN(C(=O)CSc2nncs2)c2cc(OC)c(OC)c(OC)c2)cc1`, for which the 50% inhibitory concentration (IC50) in the assay on MCF7 turned out to be 19.4 µM.

Regarding `COc1cc(N(Cc2cccc(C)c2)C(=O)Cc2cccs2)cc(OC)c1OC`, the IC50 amounted to 26.9 µM with PC-3, 19.7 µM in the assay on MGC-803 and 42.6 µM in the assay with MCF7.

With `COc1ccc(CN(C(=O)Cc2cccc(OC)c2)c2cc(OC)c(OC)c(OC)c2)cc1`, the values for the half-maximal inhibitory concentration (IC50) with PC-3, in the assay with MGC-803 and with MCF7 were 3.04 µM, 1.06 µM and 1.33 µM, respectively.

Take `COc1cc(N(Cc2ccc(Br)cc2)C(=O)Cc2cccs2)cc(OC)c1OC`: the IC50 in the assay with PC-3 worked out at 7.68 µM; with MGC-803, 5.32 µM; with MCF7 it was 6.43 µM.

In the case of `COc1ccc(CN(C(=O)Cc2cccs2)c2ccc(OC)cc2)cc1`, the IC50 with PC-3, in the assay with MGC-803 and with MCF7 was greater than 80 µM in each case.

On to `COc1ccc(CN(C(=O)Cc2ccc(C)cc2C)c2cc(OC)c(OC)c(OC)c2)cc1`, for which the figures for the IC50 with PC-3, in the assay with MGC-803 and in the assay with MCF7 were 52.8 µM, 28.7 µM and 69.4 µM, respectively.

Consider `COc1ccc(CC(=O)N(Cc2ccc(OC)cc2)c2cc(OC)c(OC)c(OC)c2)cc1`, for which the values for the IC50 with PC-3, in the assay with MGC-803 and in the assay on MCF7 were 1.49 µM, 4.37 µM and 0.18 µM, respectively.

Take `O=c1[nH]cc(F)c(=O)[nH]1` [FLUOROURACIL]: in the assay with PC-3, the concentration for half-maximal inhibition (IC50) was 17.3 µM.

On to `COc1ccc(CN(C(=O)C(c2ccccc2)c2ccccc2)c2cc(OC)c(OC)c(OC)c2)cc1`, for which the IC50 with PC-3, in the assay on MGC-803 and in the assay on MCF7 was greater than 80 µM each time.

For the compound `COc1cc(N(Cc2ccccc2)C(=O)Cc2cccs2)cc(OC)c1OC`, the figures for the concentration for half-maximal inhibition (IC50) in the assay with PC-3, with MGC-803 and with MCF7 were 33.9 µM, 22 µM and 48.8 µM, respectively.

With `COc1cc(N(Cc2cccc(F)c2)C(=O)Cc2cccs2)cc(OC)c1OC`, the IC50 in the assay on PC-3 is 21.4 µM; in the assay with MGC-803 it was 13.1 µM; with MCF7, 27.3 µM.

`COc1ccc(CN(C(=O)Cc2cccs2)c2cc(OC)c(OC)c(OC)c2)cc1N`: the figures for the 50% inhibitory concentration (IC50) in the assay on PC-3, with MGC-803 and in the assay on MCF7 were 1.65 µM, 0.1 µM and 2.48 µM, respectively.

For `COc1ccc(CN(C(=O)COc2ccc(OC)cc2)c2cc(OC)c(OC)c(OC)c2)cc1`, the IC50 in the assay with PC-3 came to 66.4 µM; in the assay with MGC-803, 6.27 µM; with MCF7, 46.4 µM.

Take `COc1cc(N(Cc2ccc(C)cc2)C(=O)Cc2cccs2)cc(OC)c1OC`: the values for the half-inhibitory concentration (IC50) in the assay with PC-3, with MGC-803 and in the assay on MCF7 were 16.9 µM, 0.84 µM and 1.56 µM, respectively.
